Laboratory results reported in patent publication US20260055364A1, “Methods for Improving Sperm Function and Fertilizing Ability for Assisted Reproduction Techniques” (Consejo Nacional de Investigaciones Cientificas y Técnicas …, priority 2022, published 2026).

Assays:
sperm = conditions: cited from earlier work
human sperm [1] = assay: Sperm motility analysis (CASA) of human sperm after ionophore and/or temperature treatment; type: cell-based; conditions: 0.5 μM for 2 min before incubation at 40° C. for 30 min; FIG. 2A
Description: Sperm Motility Analysis: Aliquots of 9.7 μl of sperm suspensions were placed on slides under 18 mm×18 mm coverslips, obtaining a preparation depth of 30 μm, and maintained at 37° C. using a temperature-controlled stage. Sperm motility parameters were evaluated using the Sperm Class Analyzer® system (SCA v.6.2.0.1., Microptic SL, Barcelona, Spain), acquiring 60 frames per second. At least 5 microscopic fields and 300 sperm were analyzed. The following parameters were assessed: curvilinear velocity (VCL, μm/s), straight line velocity (VSL, μm/s), average path velocity (VAP, μm/s), linearity ([…]), straightness (STR×100, %), wobble (WOB: VAP/VCL×100, a measure of sperm head side to side movement, %), amplitude of lateral head displacement (ALH, μm) and beat cross frequency (BCF, Hz). Sperm motility was measured and classified as follows: rapid progressive (VCL≥35 μm/s; STR≥80%), medium progressive (VCL≥15 μm/s; STR≥80%), in situ (VCL<15 μm/s; VAP≥5 μm/s) and immotile (VAP<5 μm/s). Percentages of total (rapid progressive+medium progressive+in situ) and progressive (rapid+medium progressive) motility were recorded. Drifting was set in 25 μm/s. Sperm were considered hyperactivated when presenting VCL≥150 μm/s, LIN<50% and ALH≥3.5 μm.
Semen samples from healthy men were processed by density gradient centrifugation as stated in Example 1. […]

mouse sperm = conditions: cited from earlier work
human sperm [2] = conditions: high-concentration ionophore treatment and removal; cited from earlier work

CNc1ccc2oc(C[C@H]3O[C@@]4(CC[C@H]3C)O[C@H]([C@H](C)C(=O)c3ccc[nH]3)[C@H](C)C[C@H]4C)nc2c1C(=O)O [A23187]
sperm HA (sperm; 0.5 and 1 μM): provoked sperm HA without immobilization | sperm motility (sperm; 5-10 μM, in a few minutes): immobilized sperm | intracellular Ca2+ concentrations (sperm; 5-10 μM): substantially elevated | levels of HA compared to control (human sperm [1]): higher levels of HA | hyperactivation after removal of the ionophore (mouse sperm; 10-20 μM for 10 min, then removal, Tateno et al): acquires HA | sperm motility (mouse sperm; 10-20 μM for 10 min, Tateno et al): immobilizes | fertility of sperm from CatSper1−/−, Slo3−/− and Adcy10−/− knock-out lines (mouse sperm; 10-20 μM for 10 min with posterior removal, Navarrete et al (2016)): overcomes infertility | motility after ionophore treatment (human sperm [2]): does not regain motility
